Results reported in publication PMC6199744, “Development of Chemical Proteomics for the Folateome and Analysis of the Kinetoplastid Folateome” (ACS Infectious Diseases, 2018).
Several values for one entry are separate records, joined by “and”; a condition that tells them apart may be missing. Identical values can stand only once. Like-named read-outs stand apart in the source and are kept apart here.

System: L. major lysate proteins
Experiment: Multitargeted bead mixture chemoproteomics, single concentration competition, proteome-wide
Assay type: binding
Settings: for fold change: vehicle control = 1

Nc1nc2[nH]cc(CCc3ccc(C(=O)N[C@@H](CCC(=O)O)C(=O)O)cc3)c2c(=O)[nH]1 [PTX, pemetrexed]
fold change relative to vehicle control: 1.01 and 1.04 and 0.91
fold change vs vehicle control: 1.03 and 1.04 and 1
fold change vs vehicle control (protein CLI00016468.1 KIN[…] PROTEIN-11): 0.68
fold change vs vehicle control (protein LINJ.03.0240 RIBOSOMAL PROTEIN L38, PUTATIVE): 1.03
fold change vs vehicle control (protein LINJ.11.0780 40S RIBOSOMAL PROTEIN S21, PUTATIVE): 0.99
fold change (protein LINJ.11.0960 40S RIBOSOMAL PROTEIN S5): 1.07
fold change vs vehicle control (protein LINJ.13.0990 […] SUBUNIT 2, PUTATIVE): 1.06
fold change vs vehicle control (protein LINJ.15.0330 RIBONUCLEOPROTEIN P18, MIT[…], PUTATIVE): 1.08
fold change (protein LINJ.19.0090 FIBRILLARIN, PUTATIVE): 0.88
fold change (protein LINJ.21.1790 40S RIBOSOMAL PROTEIN S11, PUTATIVE): 1.08
fold change relative to vehicle control (protein LINJ.23.0860, 3-KETOACYL-COA THIOLASE, PUTATIVE): 1.16
fold change relative to vehicle control (protein LINJ.24.2300, 60S RIBOSOMAL PROTEIN L12, PUTATIVE): 0.96
fold change vs vehicle control (protein LINJ.25.2230 SUCCINYL-COA […] SUBUNIT, PUTATIVE): 0.97
fold change vs vehicle control (protein LINJ.26.1630 40S RIBOSOMAL PROTEIN S33, PUTATIVE): 0.99
fold change vs vehicle control (protein LINJ.28.1100 RIBOSOMAL PROTEIN S20, PUTATIVE): 0.99
fold change relative to vehicle control (protein LINJ.28.1940, R[…] A, 51KDA SUBUNIT, PUTATIVE): 0.99
fold change (protein LINJ.28.2280 DYNEIN LIGHT CHAIN LC6, FLAGELLAR OUTER ARM, PUTATIVE): 0.87
fold change (protein LINJ.28.2870 PROTEIN PHOSPHATASE 4 CATALYTIC SUBUNIT, PUTATIVE): 0.97
fold change relative to vehicle control (protein LINJ.31.1600, CYTOCHROME C OXIDASE VIII (COX VIII), PUTATIVE): 0.89
fold change relative to vehicle control (protein LINJ.33.1730, CYCLOPHILIN 4, PUTATIVE): 1.47
fold change vs vehicle control (protein LINJ.34.0670 […]-ATP-ASE SUBUNIT 11, PUTATIVE,19S […]): 0.91
fold change vs vehicle control (protein LINJ.36.0780 PROTEIN KINASE, PUTATIVE,MITOGEN-ACTIVATED PROTEIN KINASE, PUTATIVE): 0.92
fold change relative to vehicle control (protein LINJ.36.3960, BASIC TRANSCRIPTION FACTOR 3A, PUTATIVE): 1.33
fold change relative to vehicle control (protein LINJ.36.4080, HY[…], CONSERVED): 0.93
fold change (protein LINJ.36.4180 HS1VU COMPLEX P[…]-LIKE): 0.92
fold change vs vehicle control (protein LINJ.[…] LONG-CHAIN-FATTY-ACID-COA LIGASE, PUTATIVE): 0.9
fold change (protein LMJF.01.0570 TRICARBOXYLATE CARRIER, PUTATIVE): 0.96
fold change relative to vehicle control (protein LMJF.03.0200, DELTA-1-PYRROLINE-5-CARBOXYLATE DEHYDROGENASE, PUTATIVE): 1.03
fold change (protein LMJF.03.0230 LONG CHAIN FATTY ACYL COA SYNTHETASE, PUTATIVE): 0.99
fold change (protein LMJF.03.0980 […] 2 ALPHA SUBUNIT, PUTATIVE): 0.97
fold change vs vehicle control (protein LMJF.04.0630 HY[…], CONSERVED): 0.99
fold change vs vehicle control (protein LMJF.04.1230 actin): 1
fold change (protein LMJF.05.0100 PHOSPHOPROTEIN PHOSPHATASE, PUTATIVE): 0.71
fold change (protein LMJF.05.0280 PROTEIN TYROSINE PHOSPHATASE, PUTATIVE): 0.88
fold change (protein LMJF.05.0510 ATPASE ALPHA SUBUNIT): 1.05
fold change (protein LMJF.05.1040 STOMATIN-LIKE PROTEIN): 0.94
fold change (protein LMJF.06.0650 […], PUTATIVE): 0.89
fold change vs vehicle control (protein LMJF.07.0700 TOPOISOMERASE-RELATED FUNCTION PROTEIN-LIKE PROTEIN): 0.73
fold change (protein LMJF.07.1000 RNA BINDING PROTEIN-LIKE PROTEIN): 0.93
fold change relative to vehicle control (protein LMJF.07.1140, PEPTIDE […] REDUCTASE-LIKE): 1.13
fold change (protein LMJF.08.0510 RIBOSE-PHOSPHATE PYROPHOSPHOKINASE, PUTATIVE): 0.89
fold change vs vehicle control (protein LMJF.08.0550 T[…]-LIKE PROTEIN): 0.98
fold change relative to vehicle control (protein LMJF.08.1030, cathepsin L-like protease): 1.04
fold change vs vehicle control (protein LMJF.08.1100 HY[…], CONSERVED): 0.92
fold change vs vehicle control (protein LMJF.09.1010 HY[…], CONSERVED): 0.89
fold change relative to vehicle control (protein LMJF.09.1120, MIT[…] BINDING PROTEIN 2,MRP2, GBP25): 1
fold change vs vehicle control (protein LMJF.09.1260 HY[…], CONSERVED): 0.97
fold change (protein LMJF.10.0210 NUCLEOLAR PROTEIN, PUTATIVE): 0.99
fold change vs vehicle control (protein LMJF.10.0310 PROTEIN TRANSPORT PROTEIN SEC23, PUTATIVE): 1.04
fold change (protein LMJF.11.0590 3-METHYLCROTONOYL-COA C[…] SUBUNIT, PUTATIVE): 0.95
fold change relative to vehicle control (protein LMJF.11.0630, AMINOPEPTIDASE, PUTATIVE,METALLO-PEPTIDASE, CLAN MF, FAMILY M17): 1.06
fold change vs vehicle control (protein LMJF.11.1050 PRETRA[…], ALPHA SUBUNIT, PUTATIVE,SEC61-LIKE (PRETRA[…]) PROTEIN, PUTATIVE): 0.96
fold change (protein LMJF.11.1160 PROTEIN TRANSPORT PROTEIN SEC31, PUTATIVE): 0.76
fold change (protein LMJF.12.0030 […]-1 SUBUNIT, PUTATIVE): 0.94
fold change vs vehicle control (protein LMJF.12.0210 […] SUBUNITTCC1L8 3, PUTATIVE): 0.96
fold change relative to vehicle control (protein LMJF.12.0530, GLUCOSE-6-PHOSPHATE ISOMERASE): 1.26
fold change (protein LMJF.12.0630 ALANINE AMINOTRANSFERASE): 0.86
fold change vs vehicle control (protein LMJF.13.1230 40S RIBOSOMAL PROTEIN S4, PUTATIVE): 1.13
fold change vs vehicle control (protein LMJF.14.0310 […] 3 SUBUNIT, PUTATIVE): 1.03
fold change (protein LMJF.14.0660 FATTY ACID ELONGASE, PUTATIVE): 0.92
fold change (protein LMJF.14.0670 FATTY ACID ELONGASE, PUTATIVE): 0.87
fold change vs vehicle control (protein LMJF.14.0680 FATTY ACID ELONGASE, PUTATIVE): 1.08
fold change (protein LMJF.14.0990 ADP/ATP MIT[…]-LIKE PROTEIN): 1.14
fold change vs vehicle control (protein LMJF.14.1160 ENOLASE): 1.01
fold change (protein LMJF.14.1440 HY[…], CONSERVED (cytoskeleton associated protein, putative)): 0.74
